Source: ChEMBL document CHEMBL1201862, “PubChem BioAssay data set” (2004)
Activity calls are given as the source filed them.

Columns and labels:
[1] = Luminescence Cell-Based Dose Response HTS to Identify Activators of Luciferase Translation or Activity in H4 […] Cells. [Related pubchem assays: 1829 (Project Summary), 1814 (Primary HTS)]; assay type: functional
[2] = Luminescence Cell-Based Dose Confirmation HTS to Identify Activators of 5'UTR Stem-Loop Driven Alpha-Synuclein mRNA Translation in H4 Neuroglioblastoma Cells. [Related pubchem assays: 1829 (Project Summary), 1814 (Primary HTS)]; assay type: functional
Large T antigen = Large T antigen (Simian virus 40, UniProt P03070); assay type: functional, Betapolyomavirus macacae;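 also: Confirmatory-stage PubChem screen for compounds that inhibit SV40 T antigen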
Large T antigen, sequence (P03070 whole entry): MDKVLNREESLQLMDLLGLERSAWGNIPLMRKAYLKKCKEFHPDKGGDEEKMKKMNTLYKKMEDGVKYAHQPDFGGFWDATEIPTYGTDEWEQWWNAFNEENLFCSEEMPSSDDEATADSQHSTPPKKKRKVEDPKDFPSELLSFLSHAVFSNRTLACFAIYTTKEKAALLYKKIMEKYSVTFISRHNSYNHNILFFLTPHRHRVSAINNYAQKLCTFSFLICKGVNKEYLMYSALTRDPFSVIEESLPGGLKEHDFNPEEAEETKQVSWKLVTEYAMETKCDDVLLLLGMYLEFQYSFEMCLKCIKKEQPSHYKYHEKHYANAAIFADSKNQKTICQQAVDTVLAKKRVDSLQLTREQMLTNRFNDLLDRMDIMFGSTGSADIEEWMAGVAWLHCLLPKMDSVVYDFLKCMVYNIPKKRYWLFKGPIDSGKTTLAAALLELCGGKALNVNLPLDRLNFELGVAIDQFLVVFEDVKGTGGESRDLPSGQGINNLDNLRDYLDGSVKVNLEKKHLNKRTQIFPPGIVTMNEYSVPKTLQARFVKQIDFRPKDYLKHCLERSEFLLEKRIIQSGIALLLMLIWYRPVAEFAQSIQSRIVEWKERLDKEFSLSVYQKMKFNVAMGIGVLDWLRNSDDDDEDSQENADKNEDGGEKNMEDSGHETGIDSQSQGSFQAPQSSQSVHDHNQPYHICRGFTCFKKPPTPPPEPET

H4 = assay: Luminescence Cell-Based Dose Response HTS to Identify Activators of 5'UTR Stem-Loop Driven Prion Protein mRNA Translation in H4 Neuroglioblastoma Cells. [Related pubchem assays: 1829 (Project Summary), 1814 (Primary HTS)]; assay type: functional; details: Homo sapiens
[3] = Luminescence Cell-Based Dose Confirmation HTS to Identify Inhibitors of Platelet Dense Granule Release. [Related pubchem assays: 1663 (Primary HTS), 1678 (Summary of Project)]; assay type: functional
[4] = target: Luciferin 4-monooxygenase (Photinus pyralis, UniProt P08659); assay: inhibition of purified Photinus pyralis luciferase – biochemical, luminescence, dose response (AID 1891)
Luciferin 4-monooxygenase, sequence (P08659 whole entry): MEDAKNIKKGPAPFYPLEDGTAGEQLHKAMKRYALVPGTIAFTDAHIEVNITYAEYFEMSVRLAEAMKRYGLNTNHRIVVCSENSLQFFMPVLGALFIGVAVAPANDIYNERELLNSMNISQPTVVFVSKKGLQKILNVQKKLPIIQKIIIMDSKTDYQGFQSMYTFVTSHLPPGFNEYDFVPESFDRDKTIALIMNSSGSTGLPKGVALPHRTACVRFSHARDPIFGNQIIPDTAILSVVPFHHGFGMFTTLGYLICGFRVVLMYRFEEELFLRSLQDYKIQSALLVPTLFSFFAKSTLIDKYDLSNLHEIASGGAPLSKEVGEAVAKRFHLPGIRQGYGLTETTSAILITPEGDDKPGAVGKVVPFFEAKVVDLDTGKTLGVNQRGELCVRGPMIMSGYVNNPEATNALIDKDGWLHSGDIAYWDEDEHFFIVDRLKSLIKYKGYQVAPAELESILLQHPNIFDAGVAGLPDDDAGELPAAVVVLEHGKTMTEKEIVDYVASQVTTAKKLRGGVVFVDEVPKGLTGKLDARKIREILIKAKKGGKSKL

[5] = target: Heat shock protein HSP 90-alpha (Homo sapiens, UniProt P07900); assay type: functional, organism-based
Cytochrome P450 3A4 = Cytochrome P450 3A4 (Homo sapiens, UniProt P08684); details: Potency;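 also: confirmatory qHTS run detecting inhibitors and substrates of CYP3A4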
Cytochrome P450 3A4, sequence (P08684 whole entry): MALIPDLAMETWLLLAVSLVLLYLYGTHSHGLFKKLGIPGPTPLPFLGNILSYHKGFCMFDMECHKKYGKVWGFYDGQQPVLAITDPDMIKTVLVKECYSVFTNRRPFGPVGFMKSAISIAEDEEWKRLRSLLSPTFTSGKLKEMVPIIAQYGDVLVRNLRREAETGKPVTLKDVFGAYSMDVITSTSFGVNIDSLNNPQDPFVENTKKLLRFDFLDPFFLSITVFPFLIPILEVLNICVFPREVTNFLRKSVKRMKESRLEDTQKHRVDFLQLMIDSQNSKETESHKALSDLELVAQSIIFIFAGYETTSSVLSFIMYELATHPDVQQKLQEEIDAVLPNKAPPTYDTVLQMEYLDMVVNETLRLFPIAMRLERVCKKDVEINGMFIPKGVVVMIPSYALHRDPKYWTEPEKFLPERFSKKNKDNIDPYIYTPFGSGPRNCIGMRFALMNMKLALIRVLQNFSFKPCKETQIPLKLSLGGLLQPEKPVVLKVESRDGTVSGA

[6] = viability of uninfected HEp-2 cells – cell-based, HTS, cytotoxicity control for RSV inhibitor project, dose response (AID 2410); assay type: functional; details: human respiratory syncytial virus
[7] = HEK-293T viability loss after treatment – luminescence, T-cell screen hits, cytotoxicity control for TCR NF-kB inhibitor project, dose response (AID 489026); assay type: functional, cell-based;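 also: cells exposed to compound about 14 hours before the viability readout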
[8] = reduction of Shn3 3'UTR-driven luciferase in osteoblasts – cell-based, Clone20 osteoblasts, firefly luciferase, cherry-picked, dose response (AID 624132); assay type: functional;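 also: firefly luciferase luminescence from reporter carrying the Shn3 3'UTR in osteoblasts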
[9] = A549 cell cytotoxicity, dose response, cytotoxicity control, plate reader, cherry-pick, antagonist series (AID 743412); assay type: functional, cell-based
[10] = viability loss in HEK293 cells – cell-based, plate reader, cherry-picked samples, cytotoxicity control, dose response (AID 743446); assay type: functional
[11] = blockers of bursicon-stimulated LGR2 cAMP reporter – cell-based, HEK293, CRE-luciferase reporter, cherry pick, set 2, dose response (AID 743343); assay type: functional;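 also: transfected cells were stimulated with diluted bursicon conditioned medium after compound addition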
[12] = blockade of melanocortin 4 receptor signaling – cell-based, plate reader, cherry pick, counter-screen for LGR2 antagonist project, dose response (AID 743444); assay type: functional;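 also: transfected HEK 293 cells stimulated with alpha-MSH peptide; potency of inhibitors of the alpha-MSH evoked signal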
[13] = toxicity toward HepG2 liver cells – cell-based, plate reader, cherry-pick, antagonist series, cytotoxicity control, dose response (AID 743416); assay type: functional
[14] = P. falciparum Dd2 growth inhibitors, dose response, SYBR Green, cherry-picked samples (AID 1159567); assay type: functional, cell-based
[15] = target: T1, Replicative DNA helicase DnaB (Mycobacterium tuberculosis, UniProt P9WMR3); assay: DnaB intein splicing inhibitors, dose response, biochemical, cell-free fluorescence (AID 449749); assay type: functional
T1 sequence (P9WMR3 whole entry): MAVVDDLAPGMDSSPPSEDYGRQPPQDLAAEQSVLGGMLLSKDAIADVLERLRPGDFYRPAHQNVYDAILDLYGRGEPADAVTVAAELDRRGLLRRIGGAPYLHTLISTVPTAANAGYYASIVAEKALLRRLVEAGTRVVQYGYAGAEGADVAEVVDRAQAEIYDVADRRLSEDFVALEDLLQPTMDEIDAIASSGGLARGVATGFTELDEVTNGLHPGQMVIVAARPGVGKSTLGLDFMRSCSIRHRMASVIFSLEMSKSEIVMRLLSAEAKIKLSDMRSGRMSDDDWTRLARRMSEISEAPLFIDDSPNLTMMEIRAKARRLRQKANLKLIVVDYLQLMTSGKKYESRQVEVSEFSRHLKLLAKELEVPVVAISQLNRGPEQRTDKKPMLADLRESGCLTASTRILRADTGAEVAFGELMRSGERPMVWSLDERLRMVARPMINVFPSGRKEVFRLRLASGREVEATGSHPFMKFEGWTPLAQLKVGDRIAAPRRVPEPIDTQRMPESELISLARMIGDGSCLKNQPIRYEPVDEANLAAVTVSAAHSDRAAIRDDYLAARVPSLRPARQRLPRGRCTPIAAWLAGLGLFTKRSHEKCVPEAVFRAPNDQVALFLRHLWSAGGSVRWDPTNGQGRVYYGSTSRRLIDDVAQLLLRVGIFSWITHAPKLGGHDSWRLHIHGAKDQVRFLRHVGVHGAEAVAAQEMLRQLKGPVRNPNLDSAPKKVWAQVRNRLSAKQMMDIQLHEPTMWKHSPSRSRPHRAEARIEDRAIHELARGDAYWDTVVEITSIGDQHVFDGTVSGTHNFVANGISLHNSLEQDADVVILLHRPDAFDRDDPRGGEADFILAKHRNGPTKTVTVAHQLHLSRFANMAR

Protein RecA = target: T2, Protein RecA (Mycobacterium tuberculosis, UniProt P9WHJ3); assay: Fluorescence Cell-Free Homogeneous Dose Retest to Identify Inhibitors of RecA-Intein Splicing Activity. [Related pubchem assays (depositor defined):AID2097, AID2223, AID489010, AID492950]; assay type: functional
T2 sequence (P9WHJ3 whole entry): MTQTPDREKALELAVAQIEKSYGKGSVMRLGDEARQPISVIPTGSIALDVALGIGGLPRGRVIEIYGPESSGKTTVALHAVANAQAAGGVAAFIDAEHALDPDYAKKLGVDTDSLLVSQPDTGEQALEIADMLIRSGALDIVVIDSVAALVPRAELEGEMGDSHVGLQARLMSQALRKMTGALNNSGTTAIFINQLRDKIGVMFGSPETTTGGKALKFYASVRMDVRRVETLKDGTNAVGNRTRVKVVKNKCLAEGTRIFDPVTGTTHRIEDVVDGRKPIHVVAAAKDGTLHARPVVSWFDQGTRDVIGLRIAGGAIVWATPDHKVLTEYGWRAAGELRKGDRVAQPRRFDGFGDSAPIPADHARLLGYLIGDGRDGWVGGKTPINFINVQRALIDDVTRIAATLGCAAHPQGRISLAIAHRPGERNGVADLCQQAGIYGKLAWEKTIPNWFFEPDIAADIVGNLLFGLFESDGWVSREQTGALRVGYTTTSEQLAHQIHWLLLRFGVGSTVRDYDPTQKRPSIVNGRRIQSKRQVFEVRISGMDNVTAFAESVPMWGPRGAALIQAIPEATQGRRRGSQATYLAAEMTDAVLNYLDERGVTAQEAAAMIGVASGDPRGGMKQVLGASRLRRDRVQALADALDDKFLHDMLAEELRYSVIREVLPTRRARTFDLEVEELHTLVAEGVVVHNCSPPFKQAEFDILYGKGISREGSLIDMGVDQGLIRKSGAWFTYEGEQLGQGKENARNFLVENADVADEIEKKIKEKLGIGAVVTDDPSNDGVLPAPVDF

c1ccc(-c2ccc3c(c2)NCCN3)cc1
EC50 [1]: 25 µM (active)
EC50 [2]: 16.3 µM (active)
IC50 (Large T antigen): 7.54 µM (active)
EC50 (H4): 50.5 µM (active)

Cc1cc(C)c2c(N=NN3CCOCC3)[nH]nc2n1
EC50 [3]: > 112 µM (not active)
EC50 [4]: > 112 µM (not active)
AC50 [5]: 4.4 µM (active)

CCCCNc1nc(C)nc2c1nc(-c1ccccc1)n2CCCCN(CC)CC
AC50 (Cytochrome P450 3A4): 12.6 µM (inconclusive)

COC(=O)c1cn(NC(=O)c2cc([N+](=O)[O-])ccc2F)c(=O)c2ccccc12
CC50 [6]: 3.87 µM (active)
IC50 [7]: > 80 µM (inactive)
AC50 [8]: 2.85 µM (active)

Cc1cccc(N2CCN(C(=O)c3c(-c4ccccc4Cl)noc3C)CC2)c1C
IC50 [7]: > 80 µM (inactive)

NC(c1ccccc1)c1csc(NC(=O)Nc2cccc(Cl)c2)n1 (stereo not given)
AC50 [9]: 21.1 µM (active)
AC50 [10]: 50.9 µM (active)
AC50 [11]: 28.8 µM (active)
AC50 [12]: 36.7 µM (active)
AC50 [13]: 16.3 µM (active)

Cc1occc1C(=O)N/N=C/C=C/c1ccc(N(C)C)cc1
IC50 (Large T antigen): 19.7 µM (active)

CCCCCCN(C(=O)CCCCCN1C(=O)NC(c2ccc(-c3ccccc3)cc2)C(C(=O)OCc2ccccc2)=C1C)C(C(=O)NCCCC)c1ccc(OCC(=O)O)c(C(=O)O)c1 (stereo not given)
AC50 (Cytochrome P450 3A4): 15.8 µM (inconclusive)

Cc1ccccc1OCCCN1CCC(C(O)(c2ccccc2)c2ccccc2)CC1
AC50 [9]: 25.7 µM (active)
AC50 [10]: 16.1 µM (active)
AC50 [11]: 19.9 µM (active)
AC50 [12]: 18.5 µM (active)
AC50 [13]: 22.6 µM (active)

CC(C)NC(=O)N1[C@H](CO)[C@@H](c2ccccc2)C12CN(Cc1ccc(Cl)cc1)C2
AC50 [14]: 4.74 µM (active)

CO[C@@H]1CN(C)C(=O)c2cc(NC(=O)c3nc4ccccc4s3)ccc2OC[C@@H](C)N(Cc2ccccc2)C[C@H]1C
AC50 [14]: 3.99 µM (active)

Nc1ccc(O)cc1 [4-AMINOPHENOL]
AC50 [15]: > 380 µM (inactive)
AC50 (Cytochrome P450 3A4): 25.1 µM (inconclusive)
EC50 (Protein RecA): > 380 µM (inconclusive)

C=CC(C1=CC(=O)C(OC)=CC1=O)c1ccc(O)cc1 (stereo not given) [DALBERGIONE, 4-METHOXY-4'-HYDROXY-]
AC50 (Cytochrome P450 3A4): 25.1 µM (inconclusive)
